Assay results taken from ChEMBL document CHEMBL4813920, “Metronidazole-conjugates: A comprehensive review of recent developments towards synthesis and medicinal perspective” (Eur J Med Chem, 2021).
pIC50: −log10 of the molar value. ≈ marks a conversion by molar mass, not a printed value.

Assays:
Entamoeba histolytica = test: Antiamoebic activity against Entamoeba histolytica HK9 ATCC 30015 incubated for 72 hrs by trypan blue staining based assay; type: functional, organism-based; settings: ATCC 30015, 72 h
Giardia intestinalis [1] = test: Antigiardial activity against Giardia intestinalis WB ATCC 30957 incubated for 72 hrs by trypan blue staining based assay; type: functional, organism-based; settings: Giardia duodenalis, WB ATCC 30957, 72 h
Giardia intestinalis [2] = test: Antigiardial activity against Giardia intestinalis MSS:0696:1 incubated for 48 hrs; type: functional, organism-based; settings: Giardia duodenalis, MSS:0696:1, 48 h
Trichomonas vaginalis = test: Anti-trichomonas activity against Trichomonas vaginalis GT3 incubated for 48 hrs; type: functional, organism-based; settings: GT3, 48 h
[3] = Cytotoxicity against African green monkey Vero cells incubated for 48 hrs by sulforhodamine B method; type: cell-based; settings: chlorocebus sabaeus
[4] = Selectivity index, ratio of CC50 for African green monkey Vero cells to IC50 for antigiardial activity against Giardia intestinalis MSS:0696:1; type: toxicity; settings: read-out: Ratio CC50/IC50
[5] = Selectivity index, ratio of CC50 for African green monkey Vero cells to IC50 for antigiardial activity against Trichomonas vaginalis GT3; type: toxicity; settings: read-out: Ratio CC50/IC50
HEK293 = test: Cytotoxicity against HEK293 cells after 24 hrs by MTT assay; type: cell-based; settings: Homo sapiens, HEK293, 24 h
[6] = Inhibition of Escherichia coli N-terminal His-tagged FabH expressed in Escherichia coli BL21(DE3) by liquid scintillation counting method
Escherichia coli [7] = test: Antibacterial activity against Escherichia coli ATCC 35218 incubated for 24 hrs by two fold serial dilution method; type: functional
Pseudomonas aeruginosa [8] = test: Antibacterial activity against Pseudomonas aeruginosa ATCC 13525 incubated for 24 hrs by two fold serial dilution method; type: functional
Bacillus spizizenii [9] = test: Antibacterial activity against Bacillus subtilis ATCC 6633 incubated for 24 hrs by two fold serial dilution method; type: functional
Staphylococcus aureus [10] = test: Antibacterial activity against Staphylococcus aureus ATCC 6538 incubated for 24 hrs by two fold serial dilution method; type: functional
[11] = Acute oral toxicity in mouse assessed as induction of mortality measured once daily for 14 days; settings: in vivo, time 14 day
[12] = Acute oral toxicity in mouse assessed as signs of gross toxicity measured once daily for 14 days; settings: in vivo, time 14 day
[13] = Acute oral toxicity in mouse assessed as behavioral changes measured once daily for 14 days; settings: in vivo, time 14 day
Helicobacter pylori [14] = test: Antibacterial activity against Helicobacter pylori ATCC 26695 incubated for 48 hrs by MTT assay; type: functional, organism-based
Helicobacter pylori [15] = test: Antibacterial activity against Helicobacter pylori P12 incubated for 48 hrs by MTT assay; type: functional, organism-based
Clostridium perfringens = test: Antibacterial activity against Clostridium perfringens ATCC 13124 incubated for 48 hrs under anaerobic condition by MTT assay; type: functional
Bacillus spizizenii [16] = test: Antibacterial activity against Bacillus subtilis ATCC 6633 by MH media dilution method; type: functional
Escherichia coli [17] = test: Antibacterial activity against Escherichia coli ATCC 35218 by MH media dilution method; type: functional
Pseudomonas aeruginosa [18] = test: Antibacterial activity against Pseudomonas aeruginosa ATCC 13525 by MH media dilution method; type: functional
Staphylococcus aureus [19] = test: Antibacterial activity against Staphylococcus aureus ATCC 6538 by MH media dilution method; type: functional
[20] = Inhibition of Staphylococcus aureus TyrRS using L-tyrosine and tRNA as substrate preincubated for 10 mins followed by substrate addition by liquid scintillation counting method
U-251 = test: Antiproliferative activity against human U-251 cells incubated for 24 to 48 hrs by CCK8 assay; type: functional, cell-based
HeLa [21] = test: Antiproliferative activity against human Hela cells incubated for 24 to 48 hrs by CCK8 assay; type: functional, cell-based
HepG2 [22] = test: Antiproliferative activity against human HepG2 cells incubated for 24 to 48 hrs by CCK8 assay; type: functional, cell-based
A549 [23] = test: Antiproliferative activity against human A549 cells incubated for 24 to 48 hrs by CCK8 assay; type: functional, cell-based
[24] = target: Telomerase reverse transcriptase (Homo sapiens, UniProt O14746); test: Inhibition of telomerase in human SGC-7901 cell extract by TRAP assay
Sequence of Telomerase reverse transcriptase (O14746 whole entry): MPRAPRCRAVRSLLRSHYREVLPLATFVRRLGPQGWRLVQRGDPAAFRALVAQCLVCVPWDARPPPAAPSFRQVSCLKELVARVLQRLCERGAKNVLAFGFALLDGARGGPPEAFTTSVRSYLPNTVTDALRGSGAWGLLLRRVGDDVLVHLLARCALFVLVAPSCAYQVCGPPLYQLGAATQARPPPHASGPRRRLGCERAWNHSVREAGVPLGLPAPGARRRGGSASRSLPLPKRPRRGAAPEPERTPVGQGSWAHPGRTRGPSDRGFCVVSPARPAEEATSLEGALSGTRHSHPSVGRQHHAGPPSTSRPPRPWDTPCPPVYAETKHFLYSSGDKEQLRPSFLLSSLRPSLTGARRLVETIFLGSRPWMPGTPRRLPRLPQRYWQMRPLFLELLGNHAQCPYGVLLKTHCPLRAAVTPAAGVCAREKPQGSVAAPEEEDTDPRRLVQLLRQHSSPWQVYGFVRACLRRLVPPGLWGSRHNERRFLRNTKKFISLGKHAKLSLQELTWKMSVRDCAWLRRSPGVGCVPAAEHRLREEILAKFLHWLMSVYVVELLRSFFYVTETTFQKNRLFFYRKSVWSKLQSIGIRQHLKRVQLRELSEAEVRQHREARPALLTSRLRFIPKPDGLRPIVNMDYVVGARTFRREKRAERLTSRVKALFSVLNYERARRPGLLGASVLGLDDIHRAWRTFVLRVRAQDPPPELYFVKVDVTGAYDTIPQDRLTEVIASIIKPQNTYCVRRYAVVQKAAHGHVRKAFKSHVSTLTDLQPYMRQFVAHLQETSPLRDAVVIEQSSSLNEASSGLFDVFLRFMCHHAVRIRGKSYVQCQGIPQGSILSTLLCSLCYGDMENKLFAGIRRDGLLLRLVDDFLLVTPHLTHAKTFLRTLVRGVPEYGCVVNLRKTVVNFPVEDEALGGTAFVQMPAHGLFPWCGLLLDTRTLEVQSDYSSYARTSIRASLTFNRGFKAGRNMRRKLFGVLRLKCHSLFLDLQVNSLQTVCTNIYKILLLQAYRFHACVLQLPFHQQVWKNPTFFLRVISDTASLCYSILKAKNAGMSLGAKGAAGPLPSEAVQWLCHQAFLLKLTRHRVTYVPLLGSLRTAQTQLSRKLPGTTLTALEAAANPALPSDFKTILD

Leishmania braziliensis = test: Antileishmanial activity against promastigote form of Leishmania braziliensis MHOM/BR/75/M2903 measured for 7 days by cell counting method; type: functional; settings: MHOM/BR/75/M2903, 168 h, time 7 day
Leishmania mexicana = test: Antileishmanial activity against promastigote form of Leishmania mexicana MHOM/BZ/82/Bel21 measured for 7 days by cell counting method; type: functional; settings: MHOM/BZ/82/Bel21, 168 h, time 7 day
MDA-MB-231 = test: Antiproliferative activity against human MDA-MB-231 cells after 24 hrs by MTT assay; type: functional, cell-based; settings: MDA-MB-231, 24 h
MCF7 [25] = test: cells; settings: Homo sapiens, MCF7, 24 h
HepG2 [26] = test: cells; settings: Homo sapiens, HepG2, 48 h
HeLa [27] = test: cells; settings: Homo sapiens, 48 h
MCF7 [28] = test: cells; settings: Homo sapiens, MCF7, 48 h
A549 [29] = test: cells; settings: Homo sapiens, A549, 48 h
Carbonic anhydrase 2 = Carbonic anhydrase 2 (Homo sapiens, UniProt P00918); test: Inhibition of recombinant human carbonic anhydrase 2 preincubated with enzyme for 15 mins by phenol red dye based stopped flow CO2 hydration assay
Carbonic anhydrase 9 = Carbonic anhydrase 9 (Homo sapiens, UniProt Q16790); test: Inhibition of recombinant human carbonic anhydrase 9 preincubated with enzyme for 15 mins by phenol red dye based stopped flow CO2 hydration assay

O=C(O)/C=C/c1ccc([N+](=O)[O-])o1
pIC50 (Entamoeba histolytica): 4.25
pIC50 (Giardia intestinalis [1]): 4.17

Cc1ncc([N+](=O)[O-])n1CCOC(=O)Nc1ccc([N+](=O)[O-])cc1
pIC50 (Giardia intestinalis [2]): 6.07
pIC50 (Trichomonas vaginalis): 5.00
CC50 at 48 h [3]: > 100 µM
selectivity ratio [4]: > 116
selectivity ratio [5]: > 10

Clc1ccc2c(N3CCNCC3)ccnc2c1
pIC50 (Entamoeba histolytica): 4.03
pIC50 (Giardia intestinalis [1]): 4.05

Cc1ncc([N+](=O)[O-])n1Cc1cn(CCCCCN2C(=O)C(=O)c3cc(Cl)ccc32)nn1
pIC50 (HEK293): 4.92

Cc1ncc([N+](=O)[O-])n1CCOC(=O)Nc1ccccc1
pIC50 (Giardia intestinalis [2]): 6.01
pIC50 (Trichomonas vaginalis): 7.05
CC50 at 48 h [3]: > 100 µM
selectivity ratio [4]: > 102
selectivity ratio [5]: 1110

Cc1ncc([N+](=O)[O-])n1CCOC(=O)NC1CCCCC1
pIC50 (Giardia intestinalis [2]): 6.34
pIC50 (Trichomonas vaginalis): 7.22
CC50 at 48 h [3]: > 100 µM
selectivity ratio [4]: > 217
selectivity ratio [5]: 1670

Cc1ncc([N+](=O)[O-])n1CC(C)OC(=O)c1ccc(/C=N/c2ccc(S(=O)(=O)NC(=N)N)cc2)cc1 (centres undefined)
pIC50 [6]: 5.31
MIC (Escherichia coli [7]): 3.13 µg/mL (≈ 6.09 µM)
MIC (Pseudomonas aeruginosa [8]): 25 µg/mL (≈ 48.7 µM)
MIC (Bacillus spizizenii [9]): 3.13 µg/mL (≈ 6.09 µM)
MIC (Staphylococcus aureus [10]): 12.5 µg/mL (≈ 24.3 µM)
LD50 at 336 h [11]: > 5000 mg/kg
LD50 at 336 h [12]: > 5000 mg/kg
LD50 at 336 h [13]: > 5000 mg/kg

Cc1ccc(C(C)C)cc1OCCn1c([N+](=O)[O-])cnc1C
IC50 (Helicobacter pylori [14]): 4.921 uM/ml
IC50 (Helicobacter pylori [15]): 0.0011 uM/ml
MIC (Clostridium perfringens): 2.7 µM (≈ 0.819 µg/mL)

COc1ccc(-c2cc(C(=O)OCCn3c([N+](=O)[O-])cnc3C)nn2-c2ccc(Cl)cc2)cc1
MIC (Bacillus spizizenii [16]): 7.82 µg/mL (≈ 16.2 µM)
MIC (Escherichia coli [17]): 3.91 µg/mL (≈ 8.11 µM)
MIC (Pseudomonas aeruginosa [18]): 1.96 µg/mL (≈ 4.07 µM)
MIC (Staphylococcus aureus [19]): 7.82 µg/mL (≈ 16.2 µM)
pIC50 [20]: 5.78

CN(C)c1ccc(/C=C/c2ncc([N+](=O)[O-])n2CCOC(=O)c2nccc3ccccc23)cc1
pIC50 (U-251): 6.37
pIC50 (HeLa [21]): 6.92
pIC50 (HepG2 [22]): 6.85
pIC50 (A549 [23]): 6.77
pIC50 [24]: 5.72

Cc1ncc([N+](=O)[O-])n1CCSCOC(=O)c1cc(O)c(O)c(O)c1
LC50 (Leishmania braziliensis): 4 µM
LC50 (Leishmania mexicana): 1 µM

Cc1ncc([N+](=O)[O-])n1Cc1cn(CCCCN2C(=O)C(=O)c3cc(Cl)ccc32)nn1
pIC50 (MDA-MB-231): 4.58
pIC50 (HEK293): < 4.00
pIC50 (MCF7 [25]): 4.27

COc1cc(/C=C\c2ncc([N+](=O)[O-])n2CCOC(=O)c2c[nH]c3ccccc23)cc(OC)c1OC
pIC50 (HepG2 [26]): 7.40
pIC50 (HeLa [27]): 7.82
pIC50 (MCF7 [28]): 7.52
pIC50 (A549 [29]): 7.46

COc1ccc(-c2cc(C(=O)OCCn3c([N+](=O)[O-])cnc3C)nn2-c2ccccc2)cc1
MIC (Bacillus spizizenii [16]): 3.91 µg/mL (≈ 8.74 µM)
MIC (Escherichia coli [17]): 1.96 µg/mL (≈ 4.38 µM)
MIC (Pseudomonas aeruginosa [18]): 0.98 µg/mL (≈ 2.19 µM)
MIC (Staphylococcus aureus [19]): 3.91 µg/mL (≈ 8.74 µM)
pIC50 [20]: 6.04

O=C(OCCn1c([N+](=O)[O-])cnc1/C=C/c1ccc2ccccc2c1)c1nccc2ccccc12
pIC50 (U-251): 6.49
pIC50 (HeLa [21]): 7.30
pIC50 (HepG2 [22]): 7.00
pIC50 (A549 [23]): 6.96
pIC50 [24]: 6.01

Cc1ncc([N+](=O)[O-])n1CCOc1cccc(/C=N\c2ccc(S(=O)(=O)Nc3nccs3)cc2)c1
pIC50 (Carbonic anhydrase 2): 7.05
pIC50 (Carbonic anhydrase 9): 7.42

Cc1ncc([N+](=O)[O-])n1CCSCOC(=O)c1ccc(O)c(O)c1
LC50 (Leishmania braziliensis): 13 µM
LC50 (Leishmania mexicana): 11 µM
